What all share (assay type): biochemical
The target of assay [1] is T1, Chk2 (Homo sapiens, UniProt O96017). Briefly: IMAP Chk2 high-throughput screening assay (fluorescence polarization). For orientation: In fluorescence polarisation assays a small probe gives low polarisation when free and higher when bound to something large.
The target in assay [2] is T1, Chk2. Briefly: In vitro Chk2 kinase assay (γ32P-ATP, SDS-PAGE). The conditions noted are these: with increasing concentration; 30° C.; FIGS. 4 and 5. The procedure:
(§1) Following on from the data obtained from high-throughput screening, another assay is employed to measure Chk2 kinase activity. This assay is based on using γ^32P-labeled ATP to mediate phosphorylation of the target substrate and autophosphorylation of Chk2. Histone H1 or Cdc25C is used as test substrate. The reactions are performed at 30° C. for appropriate times, then the samples have 2×SDS loading buffer added to quench the reaction. The samples are boiled for about 5 minutes and then subjected to SDS-PAGE.

Assay [3] addresses T2, Chk1 (Homo sapiens, UniProt O14757).
T2 sequence (O14757 1-476): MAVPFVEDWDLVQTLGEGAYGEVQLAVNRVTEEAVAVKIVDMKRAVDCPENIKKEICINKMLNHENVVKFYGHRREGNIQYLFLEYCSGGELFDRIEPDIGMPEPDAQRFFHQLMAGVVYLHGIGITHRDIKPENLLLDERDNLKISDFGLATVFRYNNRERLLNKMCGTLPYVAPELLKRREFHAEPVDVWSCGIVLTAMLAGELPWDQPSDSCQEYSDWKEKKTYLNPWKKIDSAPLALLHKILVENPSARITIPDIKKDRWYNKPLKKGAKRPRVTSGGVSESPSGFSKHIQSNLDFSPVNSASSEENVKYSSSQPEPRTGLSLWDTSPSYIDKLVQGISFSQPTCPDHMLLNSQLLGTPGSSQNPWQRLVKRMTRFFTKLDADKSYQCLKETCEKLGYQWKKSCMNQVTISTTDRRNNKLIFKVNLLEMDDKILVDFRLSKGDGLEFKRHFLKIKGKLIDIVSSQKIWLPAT
In words: Chk1 inhibitory activity of screening hits. The following applies: FIG. 2.

The target in assay [4] is T2, Chk1. Briefly: In vitro Chk1 kinase assay (γ32P-ATP, SDS-PAGE). The conditions noted are these: FIG. 6.
From the text: FIG. 6 illustrates inhibition of Chk1 kinase activity by NSC 109555 using an in vitro kinase assay. Top bands indicate the level of Chk1 autophosphorylation, bottom bands indicate the level of histone H1 phosphorylation.
as §1
Staurosporine is used as a positive control to confirm Chk2 inhibition (See, FIG. 4). Following on from this, NSC 109555 is used in this assay and is depicted in FIG. 5. […].

The mark [5] stands for this setting: IMAP assay, fluorescein-labeled peptide substrate, read-out: EC50 (Chk2 inhibition).

Read-outs that look alike come from different tables or passages of the source.

A word on the EC50: it is the concentration giving half of the maximal effect.

T1 sequence (O96017 whole entry): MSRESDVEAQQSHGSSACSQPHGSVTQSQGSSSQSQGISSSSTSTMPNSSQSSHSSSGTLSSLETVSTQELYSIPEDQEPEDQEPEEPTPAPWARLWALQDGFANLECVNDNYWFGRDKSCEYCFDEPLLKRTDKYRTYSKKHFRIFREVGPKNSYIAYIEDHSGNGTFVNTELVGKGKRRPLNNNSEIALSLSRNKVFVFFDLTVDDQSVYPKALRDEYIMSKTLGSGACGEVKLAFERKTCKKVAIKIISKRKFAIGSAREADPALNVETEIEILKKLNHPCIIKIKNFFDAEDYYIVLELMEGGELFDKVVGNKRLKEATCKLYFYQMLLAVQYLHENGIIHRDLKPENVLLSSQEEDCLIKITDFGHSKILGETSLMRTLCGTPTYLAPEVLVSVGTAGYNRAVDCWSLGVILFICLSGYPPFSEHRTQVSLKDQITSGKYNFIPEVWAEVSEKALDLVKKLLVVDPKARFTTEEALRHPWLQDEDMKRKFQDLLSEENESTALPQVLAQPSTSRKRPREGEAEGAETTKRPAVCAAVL

As to `C/C(=N\O)c1ccc2c(c1)C(=NO)c1cc(/C(C)=N/O)ccc1-2` [Compound 5], the EC50 on Chk2 [1] (setting [5]) is roughly 4 µM.

Turning to `C/C(=N\O)c1ccc2c(c1)C(=NO)c1ccccc1-2` [Compound 6], on Chk2 [1] (setting [5]), the EC50 was in the range of 0.6 to 3.8 µM.

The molecule `O=[N+]([O-])c1ccc2c(c1)C(=NO)c1cc([N+](=O)[O-])ccc1-2` [Compound 7] gave an EC50 at Chk2 [1] of 0.8 to 4 µM.

Take `CCN(CC)CCCNc1ccc2nc(C)n3c4ccc(O)cc4c(=O)c1c23` [Compound 8]: at Chk2 [1] (setting [5]), the EC50 was roughly 20 µM.

With `C/C(=N\NC(=N)N)c1ccc(NC(=O)Nc2ccc(/C(C)=N/NC(=N)N)cc2)cc1` [NSC 109555], the “Chk2 kinase activity (autophosphorylation and histone H1 phosphorylation)” value on Chk2 [2] is on record as “inhibited”. Besides, the EC50 at Chk2 [1] (setting [5]) was determined as 0.051 µM. Further, the “inhibitory effect on Chk1 activity” value at Chk1 [3] is reported as “little or no inhibitory effect”. Moreover, the “kinase activity of Chk1” value on Chk1 [4] is recorded as “did not appear to inhibit”.

Source of the values: US8912214B2, “Use of Chk2 kinase inhibitors for cancer treatment” (The United States of America, as Represented by the …, priority 2005, dated 2014).
